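Step 1: Grow cells in 96-well plates. Step 2: Expose to compound for 48 hours at 5 concentrations. Step 3: Interpolate endpoints linearly; if unreached, use highest concentration. GI50 marks 50% less growth. TGI: total growth inhibition.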
Key:
Experiment in all cases: inhibition of tumour cell growth, NCI panel, 48 h
A498 renal = system: A498 renal
A549 NSCLC = system: A549 NSCLC
ACHN renal = system: ACHN renal
BT-549 breast = system: BT-549 breast
CCRF-CEM leukemia = system: CCRF-CEM leukemia
COLO 205 colon = system: COLO 205 colon
DU-145 prostate = system: DU-145 prostate
HCC-2998 colon = system: HCC-2998 colon
HCT-116 colon = system: HCT-116 colon
HCT-15 colon = system: HCT-15 colon
HL-60(TB) leukemia = system: HL-60(TB) leukemia
HS 578T breast = system: HS 578T breast
HT29 colon = system: HT29 colon
IGROV1 ovarian = system: IGROV1 ovarian
K-562 leukemia = system: K-562 leukemia
KM12 colon = system: KM12 colon
LOX IMVI melanoma = system: LOX IMVI melanoma
M14 melanoma = system: M14 melanoma
MALME-3M melanoma = system: MALME-3M melanoma
MCF7 breast = system: MCF7 breast
MDA-MB-231 breast = system: MDA-MB-231 breast
MDA-MB-435 = system: MDA-MB-435
MOLT-4 leukemia = system: MOLT-4 leukemia
NCI-H23 lung = system: NCI-H23 lung
NCI-H460 lung = system: NCI-H460 lung
NCI-H522 lung = system: NCI-H522 lung
NCI/ADR-RES ovarian = system: NCI/ADR-RES ovarian
OVCAR-3 ovarian = system: OVCAR-3 ovarian
OVCAR-5 ovarian = system: OVCAR-5 ovarian
OVCAR-8 ovarian = system: OVCAR-8 ovarian
PC-3 prostate = system: PC-3 prostate
RPMI-8226 leukemia = system: RPMI-8226 leukemia
RXF 393 renal = system: RXF 393 renal
SF-268 CNS = system: SF-268 CNS
SF-295 CNS = system: SF-295 CNS
SF-539 CNS = system: SF-539 CNS
SK-MEL-2 melanoma = system: SK-MEL-2 melanoma
SK-MEL-28 melanoma = system: SK-MEL-28 melanoma
SK-MEL-5 melanoma = system: SK-MEL-5 melanoma
SK-OV-3 ovarian = system: SK-OV-3 ovarian
SN12C renal = system: SN12C renal
SNB-19 CNS = system: SNB-19 CNS
SR leukemia = system: SR leukemia
SW-620 colon = system: SW-620 colon
T-47D breast = system: T-47D breast
U251 CNS = system: U251 CNS
UACC-257 melanoma = system: UACC-257 melanoma
UACC-62 melanoma = system: UACC-62 melanoma
UO-31 renal = system: UO-31 renal
786-0 renal = system: 786-0 renal
CAKI-1 renal = system: CAKI-1 renal
EKVX NSCLC = system: EKVX NSCLC
HOP-62 NSCLC = system: HOP-62 NSCLC
HOP-92 NSCLC = system: HOP-92 NSCLC
NCI-H226 lung = system: NCI-H226 lung
OVCAR-4 ovarian = system: OVCAR-4 ovarian
SNB-75 CNS = system: SNB-75 CNS
TK-10 renal = system: TK-10 renal

## Nc1ccccc1NC(=O)CCCCCCC(=O)Nc1ccc2c(c1)/C(=C/c1ccc[nH]1)C(=O)N2
A498 renal
  GI50: 3.17 µM
  TGI: > 100 µM
A549 NSCLC
  GI50: > 100 µM
  TGI: > 100 µM
ACHN renal
  GI50: 15.1 µM
  TGI: > 100 µM
BT-549 breast
  GI50: 0.391 µM
  TGI: > 100 µM
CCRF-CEM leukemia
  GI50: 0.419 µM
  TGI: > 100 µM
COLO 205 colon
  GI50: 43.8 µM
  TGI: > 100 µM
DU-145 prostate
  GI50: 7.06 µM
  TGI: > 100 µM
HCC-2998 colon
  GI50: > 100 µM
  TGI: > 100 µM
HCT-116 colon
  GI50: 6.13 µM
  TGI: > 100 µM
HCT-15 colon
  GI50: > 100 µM
  TGI: > 100 µM
HL-60(TB) leukemia
  GI50: 1.8 µM
  TGI: > 100 µM
HS 578T breast
  GI50: 47.6 µM
  TGI: > 100 µM
HT29 colon
  GI50: > 100 µM
  TGI: > 100 µM
IGROV1 ovarian
  GI50: 49.8 µM
  TGI: > 100 µM
K-562 leukemia
  GI50: 8.75 µM
  TGI: > 100 µM
KM12 colon
  GI50: 1.45 µM
  TGI: > 100 µM
LOX IMVI melanoma
  GI50: > 100 µM
  TGI: > 100 µM
M14 melanoma
  GI50: 69.2 µM
  TGI: > 100 µM
MALME-3M melanoma
  GI50: 6.2 µM
  TGI: > 100 µM
MCF7 breast
  GI50: 3.6 µM
  TGI: > 100 µM
MDA-MB-231 breast
  GI50: > 100 µM
  TGI: > 100 µM
MDA-MB-435
  GI50: 14.7 µM
  TGI: > 100 µM
MOLT-4 leukemia
  GI50: 2.9 µM
  TGI: > 100 µM
NCI-H23 lung
  GI50: > 100 µM
  TGI: > 100 µM
NCI-H460 lung
  GI50: 22.4 µM
  TGI: > 100 µM
NCI-H522 lung
  GI50: 2.78 µM
  TGI: > 100 µM
NCI/ADR-RES ovarian
  GI50: > 100 µM
  TGI: > 100 µM
OVCAR-3 ovarian
  GI50: 5.42 µM
  TGI: > 100 µM
OVCAR-5 ovarian
  GI50: > 100 µM
  TGI: > 100 µM
OVCAR-8 ovarian
  GI50: 5.59 µM
  TGI: > 100 µM
PC-3 prostate
  GI50: 6.92 µM
  TGI: > 100 µM
RPMI-8226 leukemia
  GI50: 2.47 µM
  TGI: > 100 µM
RXF 393 renal
  GI50: > 100 µM
  TGI: > 100 µM
SF-268 CNS
  GI50: 6.64 µM
  TGI: > 100 µM
SF-295 CNS
  GI50: > 100 µM
  TGI: > 100 µM
SF-539 CNS
  GI50: 1.32 µM
  TGI: > 100 µM
SK-MEL-2 melanoma
  GI50: 5.73 µM
  TGI: > 100 µM
SK-MEL-28 melanoma
  GI50: > 100 µM
  TGI: > 100 µM
SK-MEL-5 melanoma
  GI50: > 100 µM
  TGI: > 100 µM
SK-OV-3 ovarian
  GI50: 6.72 µM
  TGI: > 100 µM
SN12C renal
  GI50: 4.68 µM
  TGI: > 100 µM
SNB-19 CNS
  GI50: > 100 µM
  TGI: > 100 µM
SR leukemia
  GI50: 4.64 µM
  TGI: > 100 µM
SW-620 colon
  GI50: 40.8 µM
  TGI: > 100 µM
T-47D breast
  GI50: 3.67 µM
  TGI: > 100 µM
U251 CNS
  GI50: 1.08 µM
  TGI: > 100 µM
UACC-257 melanoma
  GI50: > 100 µM
  TGI: > 100 µM
UACC-62 melanoma
  GI50: > 100 µM
  TGI: > 100 µM
UO-31 renal
  GI50: 2.21 µM
  TGI: > 100 µM

## Cc1cc(=O)c2cc(N=Cc3ccc([N+](=O)[O-])o3)ccc2o1
786-0 renal
  TGI: > 100 µM
A498 renal
  TGI: > 100 µM
A549 NSCLC
  TGI: > 100 µM
ACHN renal
  TGI: > 100 µM
BT-549 breast
  TGI: > 100 µM
CAKI-1 renal
  TGI: > 100 µM
CCRF-CEM leukemia
  TGI: > 100 µM
COLO 205 colon
  TGI: > 100 µM
DU-145 prostate
  TGI: > 100 µM
EKVX NSCLC
  TGI: > 100 µM
HCC-2998 colon
  TGI: > 100 µM
HCT-116 colon
  TGI: > 100 µM
HCT-15 colon
  TGI: > 100 µM
HL-60(TB) leukemia
  TGI: > 100 µM
HOP-62 NSCLC
  TGI: > 100 µM
HOP-92 NSCLC
  TGI: > 100 µM
HS 578T breast
  TGI: > 100 µM
HT29 colon
  TGI: > 100 µM
IGROV1 ovarian
  TGI: > 100 µM
K-562 leukemia
  TGI: > 100 µM
KM12 colon
  TGI: > 100 µM
LOX IMVI melanoma
  TGI: > 100 µM
M14 melanoma
  TGI: > 100 µM
MALME-3M melanoma
  TGI: > 100 µM
MCF7 breast
  TGI: > 100 µM
MDA-MB-231 breast
  TGI: > 100 µM
MDA-MB-435
  TGI: > 100 µM
MOLT-4 leukemia
  TGI: > 100 µM
NCI-H226 lung
  TGI: > 100 µM
NCI-H23 lung
  TGI: > 100 µM
NCI-H460 lung
  TGI: > 100 µM
NCI-H522 lung
  TGI: > 100 µM
NCI/ADR-RES ovarian
  TGI: > 100 µM
OVCAR-3 ovarian
  TGI: > 100 µM
OVCAR-4 ovarian
  TGI: > 100 µM
OVCAR-5 ovarian
  TGI: > 100 µM
RPMI-8226 leukemia
  TGI: > 100 µM
SF-268 CNS
  TGI: > 100 µM
SF-295 CNS
  TGI: > 100 µM
SF-539 CNS
  TGI: > 100 µM
SK-MEL-2 melanoma
  TGI: > 100 µM
SK-MEL-28 melanoma
  TGI: > 100 µM
SK-MEL-5 melanoma
  TGI: > 100 µM
SK-OV-3 ovarian
  TGI: > 100 µM
SN12C renal
  TGI: > 100 µM
SNB-19 CNS
  TGI: > 100 µM
SNB-75 CNS
  TGI: > 100 µM
SR leukemia
  TGI: > 100 µM
SW-620 colon
  TGI: > 100 µM
T-47D breast
  TGI: > 100 µM
TK-10 renal
  TGI: > 100 µM
U251 CNS
  TGI: > 100 µM
UACC-257 melanoma
  TGI: > 100 µM
UACC-62 melanoma
  TGI: > 100 µM
UO-31 renal
  TGI: > 100 µM
